Test results published in patent US7423030B2, “1-amino-phthalazine derivatives, the preparation and the therapeutic use thereof” (Sanofi-Aventis, priority 2004, dated 2008).
Structures can show the parent of a compound that is named as a salt.

Legend:
[1] = target: MCH1 receptor (UniProt P97639); assay: Displacement of [125I]-Tyr-S36057 binding to MCH1 receptors on brain membrane preparations; conditions: rat and/or mouse brain membranes, 50 pM [125I]-Tyr-S36057, room temperature, 30 minutes; read-out: IC50 (concentration that inhibits 50% of the specific binding)
Description: The compounds according to the invention underwent pharmacological tests. Their affinity towards the receptor 1 of Melamin-Concentrating Hormone (MCH), MCH1 was determined by these means.
The tests consisted in measuring the in vitro activity of the compounds of the invention on the MCH1 receptors of MCH.
The measurement of the affinity of the compounds of the invention for the MCH receptors was performed by studying the displacement of the binding of a radiolabelled derivative of MCH to the MCH1 receptors. This study was performed on rat and/or mouse brain membrane preparations according to the protocol described below.
In anticipation of the binding studies, the brains are diluted in HEPES buffer 25 mM (pH: 7.4) containing MgCl2 5 mM, CaCl2 1 mM, homogenized using a Polytron blender for 3 times 20 seconds (speed 25), and are then ultracentrifuged at 22 000 rpm and at +4° C. for 30 minutes. […]
The incubation is performed at room temperature for 30 minutes, and then stopped by rapid addition of ice-cold HEPES buffer 25 mM (pH: 7.4) supplemented with 0.2% bovine serum albumin, and by filtration through GF/B glass fibre filters preincubated for 2 hours in an aqueous 0.1% polyethyleneimine solution. The radioactivity retained on the filters is measured using a Gamma scintillation counter. The non-specific binding is determined in the presence of 1 μM of non-radiolabelled S36057. […]

[2] = test system: MCH1 receptor; conditions: social conflict and forced swimming in rats, maternal separation in guinea pigs; cited from earlier work

Compound | melting point [°C] | also measured
COc1ccc2c(-c3cccnc3)nnc(NC3CCN(Cc4ccc5ccccc5c4)CC3)c2c1.Cl.Cl.Cl (hydrate or solvate) | 225 | –
COc1ccc(-c2nnc(NC3CCN(Cc4ccc(Cl)cc4)CC3)c3cc(OC)ccc23)cc1.Cl.Cl (hydrate or solvate) | 277 | –
COc1ccc2c(-c3ccc(C)c(C)c3)nnc(NC3CCN(Cc4ccc5ccccc5c4)CC3)c2c1.Cl.Cl (hydrate or solvate) | 210 | –
COc1ccc(-c2nnc(NC3CCN(Cc4ccc(NC=O)cc4)CC3)c3cc(OC)ccc23)cc1.Cl.Cl (hydrate or solvate) | 293 | –
Cl.Cl.c1ccc(-c2ccc3c(-c4ccccc4)nnc(NC4CCN(Cc5ccc6ccccc6c5)CC4)c3c2)cc1 (hydrate or solvate) | 224 | –
COCc1nnc(NC2CCN(Cc3ccc4c(c3)OCO4)CC2)c2cc(OC)ccc12.Cl.Cl (hydrate or solvate) | 284 | –
COc1ccc(-c2nnc(NC3CCN(Cc4ccc5ccccc5c4)CC3)c3cc(OC)cc(OC)c23)cc1.Cl.Cl (hydrate or solvate) | 212 | –
COc1cc(-c2ccccc2)c2cnnc(NC3CCN(Cc4ccc5ccccc5c4)CC3)c2c1.Cl.Cl (hydrate or solvate) | 199 | –
COc1ccc(-c2nnc(NC3CCN(Cc4ccc5c(c4)OCO5)CC3)c3cc(OC)ccc23)cc1.Cl.Cl (hydrate or solvate) | 235 | –
COc1ccc(-c2nnc(NC3CCN(C/C=C/c4ccccc4)CC3)c3cc(OC)ccc23)cc1.Cl.Cl (hydrate or solvate) | 210 | –
COc1ccc(-c2nnc(NC3CCN(Cc4ccccc4)CC3)c3cc(OC)cc(OC)c23)cc1 [Compound 11, N-(1-benzylpiperidin-4-yl)-5,7-dimethoxy-4-(4-methoxyphenyl)phthalazin-1-amine] | 168 | –
COc1cc(OC)c2c(Cc3ccccc3)nnc(NC3CCN(Cc4ccc5ccccc5c4)CC3)c2c1 [Compound 22, 4-Benzyl-5,7-dimethoxy-N-[1-(naphthalen-2-ylmethyl)piperidin-4-yl]phthalazin-1-amine] | 163 | –
COc1ccc2c(C)nnc(NC3CCN(Cc4ccc5ccccc5c4)CC3)c2c1 [Compound 95, 7-Methoxy-4-methyl-N-[1-(naphthalen-2-ylmethyl)piperidin-4-yl]phthalazin-1-amine] | 188 | –
COc1ccc(-c2nnc(NC3CCN(Cc4ccccc4)CC3)c3cc(OC)cc(OC)c23)cc1 [Example 2, N-(1-benzylpiperidin-4-yl)-5,7-dimethoxy-4-(4-methoxyphenyl)phthalazin-1-amine] | – | IC50 [1]: 72 nM
c1ccc(-c2ccc3c(-c4ccccc4)nnc(NC4CCN(Cc5ccc6ccccc6c5)CC4)c3c2)cc1 [Example 42, 4,7-diphenyl-N-[1-(naphthalen-2-ylmethyl)piperidin-4-yl]-phthalazin-1-amine dihydrochloride] | – | IC50 [1]: 360 nM
COCC1=C(C(=O)OC)[C@H](c2ccc(F)c(F)c2)N(C(=O)NCCCN2CCC(c3cccc(NC(C)=O)c3)CC2)C(=O)N1 [SNAP-7941] | – | behavioural profile in animal models [2]: anxiolytic and/or antidepressant profile

Now from value to compound, other results behind:

melting point [°C] | Compound | also measured
228 | COc1ccc(-c2nnc(NC3CCN(Cc4ccc5ccccc5c4)CC3)c3cc(OC)ccc23)c(OC)c1.Cl.Cl (hydrate or solvate) | –
240 | COc1cc(OC)cc(-c2nnc(NC3CCN(Cc4ccc5ccccc5c4)CC3)c3cc(OC)ccc23)c1.Cl.Cl (hydrate or solvate) | –
292 | COc1ccc2c(-c3ccc(-c4ccccc4)cc3)nnc(NC3CCN(Cc4ccc5ccccc5c4)CC3)c2c1.Cl.Cl (hydrate or solvate) | –
294 | COc1ccc(-c2nnc(NC3CCN(Cc4ccc(CO)cc4)CC3)c3cc(OC)ccc23)cc1.Cl.Cl (hydrate or solvate) | –
284 | COc1ccc(-c2nnc(NC3CCN(Cc4ccc(CN)cc4)CC3)c3cc(OC)ccc23)cc1.Cl.Cl.Cl (hydrate or solvate) | –
255 | COc1ccc(-c2nnc(NC3CCN(Cc4ccc(NC(C)=O)cc4)CC3)c3cc(OC)ccc23)cc1.Cl.Cl (hydrate or solvate) | –
293 | COc1ccc(-c2nnc(NC3CCN(Cc4ccc5oc(=O)ccc5c4)CC3)c3cc(OC)ccc23)cc1.Cl.Cl (hydrate or solvate) | –
216 | COc1ccc(CN2CCC(Nc3nnc(-c4ccc(OC)cc4)c4ccc(OC)cc34)CC2)cc1.Cl.Cl (hydrate or solvate) | –
222 | COc1ccc(-c2nnc(NC3CCN(Cc4ccc(CN5CCCC5)cc4)CC3)c3cc(OC)ccc23)cc1.Cl.Cl.Cl (hydrate or solvate) | –
230 | COc1ccc(-c2nnc(NC3CCN(Cc4ccc5ccccc5c4)CC3)c3cc(Cl)ccc23)cc1.Cl.Cl (hydrate or solvate) | –
176 | COCc1nnc(NC2CCN(Cc3ccc4ccccc4c3)CC2)c2cc(OC)ccc12.Cl (hydrate or solvate) | –
254 | COc1ccc(-c2nnc(N[C@@H]3CCN(Cc4ccc5ccccc5c4)C3)c3cc(OC)ccc23)cc1.Cl.Cl (hydrate or solvate) | –
210 | COc1ccc(-c2nnc(NC3CCN(Cc4ccc(C)c(F)c4)CC3)c3cc(OC)ccc23)cc1 [Compound 74, N-[1-(3-fluoro-4-methylbenzyl)piperidin-4-yl]-7-methoxy-4-(4-methoxyphenyl)phthalazin-1-amine] | –
207 | Fc1ccc(-c2nnc(NC3CCN(Cc4ccc5ccccc5c4)CC3)c3cc(F)ccc23)cc1 [Compound 106, 7-Fluoro-4-(4-fluorophenyl)-N-[1-(naphthalen-2-ylmethyl)piperidin-4-yl]phthalazin-1-amine] | –
267 | COc1ccc(-c2nnc(NC3CCN(Cc4ccc5[nH]cnc5c4)CC3)c3cc(OC)ccc23)cc1 [Compound 138, N-[1-(1H-benzimidazol-5-ylmethyl)piperidin-4-yl]-7-methoxy-4-(4-methoxyphenyl)phthalazin-1-amine] | –
102 | COc1ccc2c(CO)nnc(NC3CCN(Cc4ccc5ccccc5c4)CC3)c2c1 [Example 48, 4-Hydroxymethyl-7-methoxy-N-[1-(naphthalen-2-ylmethyl)piperidin-4-yl]phthalazin-1-amine] | –
